Test results reported in US9085605B2, “Chemical synthesis and anti-tumor and anti-metastatic effects of dual functional conjugate” (Shenzhen Salubris Pharmaceuticals Co., Ltd., priority 2010, dated 2015).

What was measured:
[1] = tested on: 10 human tumor cell lines; test: Antitumor activity screening in 10 human tumor cell lines; assay type: cell-based
Description: In the invention, the compounds, MTC-301, MTC-302, MTC-303, MTC-304, MTC-305, MTC-306, MTC-307, MDC-308, MDC-403, MDC-404, MDC-405. MDC-406, MDC-407 and MDC-408 were screened their antitumor activity in 10 human tumor cell lines. […] The experimental results refer to FIGS. 13-16.

[2] = tested on: human breast cancer line MDA-MB-231; test: Tumor growth inhibition in nude mice xenograft model, MDA-MB-231
Procedure: • 1. […] Drug administration dose were set as: 10 mg/kg, 15 mg/kg, and 20 mk/kg, drug administration volume was 0.2 mL/20 g. • 2. […] MDA [Peptide (P) 0.54 mg/mL (0.001M), Example 10], a colorless and clear liquid, was prepared by the commission, can be directly used after the repackaging in a sterile condition, stored at 4° C. […] Certificate NO. […] SYSK (BeiJing) 2004-0001. Experiment Methods:
The mice were divided into groups and administrated drug after 11 days.
The mice were divided into eight groups, each group had 6-8 mice. The groups contained Negative control. […] After grouping, all mice were administrated with drug by intraperitoneal injection once a day depends on their body weight.
Other groups were administered with drugs for 24 times successively. The experiment was completed 24 h after the last administration.
The mice were sacrificed, and tumors were isolated and their weight was measured, and the inhibition rate of tumor growth by drugs were calculated. […] Calculation methods and formula were omitted.

[3] = tested on: 60 human tumor cell lines; test: NCI screening of antitumor activity in vitro in 60 human tumor cell lines; assay type: cell-based
Description: The experimental results refer to FIGS. 1-12.

Compound: CC(=O)O[C@H]1C(=O)[C@@]2(C)[C@H]([C@H](OC(=O)c3ccccc3)[C@]3(O)C[C@H](OC(=O)[C@H](OC(=O)CCC(=O)NCCCCC(NC(=O)CC[C@H](NC(=O)C(C)NC(=O)/C=C/c4ccc(F)cc4F)C(N)=O)C(N)=O)[C@@H](NC(=O)c4ccccc4)c4ccccc4)C(C)=C1C3(C)C)[C@]1(OC(C)=O)CO[C@@H]1C[C@@H]2O (some centres unmarked) [MTC-303]
- 50% growth inhibition (GI50) activity [1]: in the same magnitude range as paclitaxel or docetaxel

Compound: CC(=O)O[C@@]12CO[C@@H]1C[C@H](O)[C@@]1(C)C(=O)[C@H](O)C3=C(C)[C@@H](OC(=O)[C@H](OC(=O)CCC(=O)NCCCCC(NC(=O)CC[C@H](NC(=O)C(C)NC(=O)/C=C/c4ccc(F)cc4F)C(N)=O)C(N)=O)[C@@H](NC(=O)OC(C)(C)C)c4ccccc4)C[C@@](O)([C@@H](OC(=O)c4ccccc4)[C@H]21)C3(C)C (some centres unmarked) [MDC-403]
- 50% growth inhibition (GI50) activity [1]: in the same magnitude range as paclitaxel or docetaxel

Compound: CC(=O)O[C@H]1C(=O)[C@@]2(C)[C@H]([C@H](OC(=O)c3ccccc3)[C@]3(O)C[C@H](OC(=O)[C@H](OC(=O)CCC(=O)NCCCCC(NC(=O)CC[C@H](NC(=O)C(C)NC(=O)/C=C/c4ccc(F)c(F)c4)C(N)=O)C(N)=O)[C@@H](NC(=O)c4ccccc4)c4ccccc4)C(C)=C1C3(C)C)[C@]1(OC(C)=O)CO[C@@H]1C[C@@H]2O (some centres unmarked) [MTC-308]
- 50% growth inhibition (GI50) activity [1]: in the same magnitude range as paclitaxel or docetaxel

Compound: CC(NC(=O)/C=C/c1ccc(Cl)cc1)C(=O)N[C@@H](CCC(=O)NC(CCCCN)C(N)=O)C(N)=O (some centres unmarked) [MDA]
- Tumor growth rate (in words) ([2]; MDA 0.54 mg/mL × 24): slower than the tumor growth rate of the negative control group
- RTV ([2]; MDA 0.54 mg/mL × 24, i.p.): 15.06 ± 5.292
- T/C ([2]; MDA 0.54 mg/mL × 24, i.p.): 83.5%
- TGI ([2]; MDA 0.54 mg/mL × 24, i.p.): 30.3%
- Tumor volume Beginning ([2]; MDA 0.54 mg/mL × 24, i.p.): 141 ± 61.1 mm^3
- Tumor volume End ([2]; MDA 0.54 mg/mL × 24, i.p.): 1898 ± 775.4 mm^3
- Tumor weight ([2]; MDA 0.54 mg/mL × 24, i.p.): 1.98 ± 0.744 g

Compound: CC(=O)O[C@H]1C(=O)[C@@]2(C)[C@H]([C@H](OC(=O)c3ccccc3)[C@]3(O)C[C@H](OC(=O)[C@H](OC(=O)CCC(=O)NCCCCC(NC(=O)CC[C@H](NC(=O)C(C)NC(=O)/C=C/c4cccc(F)c4)C(N)=O)C(N)=O)[C@@H](NC(=O)c4ccccc4)c4ccccc4)C(C)=C1C3(C)C)[C@]1(OC(C)=O)CO[C@@H]1C[C@@H]2O (some centres unmarked) [MTC-307]
- 50% growth inhibition (GI50) activity [1]: in the same magnitude range as paclitaxel or docetaxel

Compound: CC(=O)O[C@H]1C(=O)[C@@]2(C)[C@H]([C@H](OC(=O)c3ccccc3)[C@]3(O)C[C@H](OC(=O)[C@H](OC(=O)CCC(=O)NCCCCC(NC(=O)CC[C@H](NC(=O)C(C)NC(=O)COc4cccc5ccccc45)C(N)=O)C(N)=O)[C@@H](NC(=O)c4ccccc4)c4ccccc4)C(C)=C1C3(C)C)[C@]1(OC(C)=O)CO[C@@H]1C[C@@H]2O (some centres unmarked) [MTC-233]
- 50% growth inhibition (GI50) activity [3]: in the same magnitude range as paclitaxel

Compound: CC(=O)O[C@H]1C(=O)[C@@]2(C)[C@H]([C@H](OC(=O)c3ccccc3)[C@]3(O)C[C@H](OC(=O)[C@H](OC(=O)CCC(=O)NCCCCC(NC(=O)CC[C@H](NC(=O)C(C)NC(=O)/C=C/c4cccs4)C(N)=O)C(N)=O)[C@@H](NC(=O)c4ccccc4)c4ccccc4)C(C)=C1C3(C)C)[C@]1(OC(C)=O)CO[C@@H]1C[C@@H]2O (some centres unmarked) [MTC-219]
- 50% growth inhibition (GI50) activity [3]: in the same magnitude range as paclitaxel

Compound: CC(=O)O[C@H]1C(=O)[C@@]2(C)[C@H]([C@H](OC(=O)c3ccccc3)[C@]3(O)C[C@H](OC(=O)[C@H](OC(=O)CCC(=O)NCCCCC(NC(=O)CC[C@H](NC(=O)C(C)NC(=O)/C=C/c4ccc(O)cc4)C(N)=O)C(N)=O)[C@@H](NC(=O)c4ccccc4)c4ccccc4)C(C)=C1C3(C)C)[C@]1(OC(C)=O)CO[C@@H]1C[C@@H]2O (some centres unmarked) [MTC-301]
- 50% growth inhibition (GI50) activity [1]: in the same magnitude range as paclitaxel or docetaxel

Compound: CC(=O)O[C@@]12CO[C@@H]1C[C@H](O)[C@@]1(C)C(=O)[C@H](O)C3=C(C)[C@@H](OC(=O)[C@H](OC(=O)CCC(=O)NCCCCC(NC(=O)CC[C@H](NC(=O)C(C)NC(=O)/C=C/c4ccc(F)cc4Cl)C(N)=O)C(N)=O)[C@@H](NC(=O)OC(C)(C)C)c4ccccc4)C[C@@](O)([C@@H](OC(=O)c4ccccc4)[C@H]21)C3(C)C (some centres unmarked) [MDC-405]
- 50% growth inhibition (GI50) activity [1]: in the same magnitude range as paclitaxel or docetaxel

Compound: CC(=O)O[C@H]1C(=O)[C@@]2(C)[C@H]([C@H](OC(=O)c3ccccc3)[C@]3(O)C[C@H](OC(=O)[C@H](OC(=O)CCC(=O)NCCCCC(NC(=O)CC[C@H](NC(=O)C(C)NC(=O)/C=C/c4ccc(C)cc4)C(N)=O)C(N)=O)[C@@H](NC(=O)c4ccccc4)c4ccccc4)C(C)=C1C3(C)C)[C@]1(OC(C)=O)CO[C@@H]1C[C@@H]2O (some centres unmarked) [MTC-302]
- 50% growth inhibition (GI50) activity [1]: in the same magnitude range as paclitaxel or docetaxel
- 50% growth inhibition (GI50) activity [3]: in the same magnitude range as paclitaxel

Compound: CC(=O)O[C@@]12CO[C@@H]1C[C@H](O)[C@@]1(C)C(=O)[C@H](O)C3=C(C)[C@@H](OC(=O)[C@H](OC(=O)CCC(=O)NCCCCC(NC(=O)CC[C@H](NC(=O)C(C)NC(=O)/C=C/c4ccc(Cl)cc4F)C(N)=O)C(N)=O)[C@@H](NC(=O)OC(C)(C)C)c4ccccc4)C[C@@](O)([C@@H](OC(=O)c4ccccc4)[C@H]21)C3(C)C (some centres unmarked) [MDC-404]
- 50% growth inhibition (GI50) activity [1]: in the same magnitude range as paclitaxel or docetaxel

Compound: CC(=O)O[C@H]1C(=O)[C@@]2(C)[C@H]([C@H](OC(=O)c3ccccc3)[C@]3(O)C[C@H](OC(=O)[C@H](OC(=O)CCC(=O)NCCCCC(NC(=O)CC[C@H](NC(=O)C(C)NC(=O)/C=C/c4ccc(F)cc4Cl)C(N)=O)C(N)=O)[C@@H](NC(=O)c4ccccc4)c4ccccc4)C(C)=C1C3(C)C)[C@]1(OC(C)=O)CO[C@@H]1C[C@@H]2O (some centres unmarked) [MTC-305]
- 50% growth inhibition (GI50) activity [1]: in the same magnitude range as paclitaxel or docetaxel

Compound: CC(=O)O[C@H]1C(=O)[C@@]2(C)[C@H]([C@H](OC(=O)c3ccccc3)[C@]3(O)C[C@H](OC(=O)[C@H](OC(=O)CCC(=O)NCCCCC(NC(=O)CC[C@H](NC(=O)C(C)NC(=O)c4ccc5ccccc5n4)C(N)=O)C(N)=O)[C@@H](NC(=O)c4ccccc4)c4ccccc4)C(C)=C1C3(C)C)[C@]1(OC(C)=O)CO[C@@H]1C[C@@H]2O (some centres unmarked) [MTC-213]
- 50% growth inhibition (GI50) activity [3]: in the same magnitude range as paclitaxel

Compound: CC(=O)O[C@H]1C(=O)[C@@]2(C)[C@H]([C@H](OC(=O)c3ccccc3)[C@]3(O)C[C@H](OC(=O)[C@H](OC(=O)CCC(=O)NCCCCC(NC(=O)CC[C@H](NC(=O)C(C)NC(=O)/C=C/c4ccc(Cl)cc4F)C(N)=O)C(N)=O)[C@@H](NC(=O)c4ccccc4)c4ccccc4)C(C)=C1C3(C)C)[C@]1(OC(C)=O)CO[C@@H]1C[C@@H]2O (some centres unmarked) [MTC-304]
- 50% growth inhibition (GI50) activity [1]: in the same magnitude range as paclitaxel or docetaxel

Compound: CC(=O)O[C@@]12CO[C@@H]1C[C@H](O)[C@@]1(C)C(=O)[C@H](O)C3=C(C)[C@@H](OC(=O)[C@H](OC(=O)CCC(=O)NCCCCC(NC(=O)CC[C@H](NC(=O)C(C)NC(=O)/C=C/c4ccc(F)cc4)C(N)=O)C(N)=O)[C@@H](NC(=O)OC(C)(C)C)c4ccccc4)C[C@@](O)([C@@H](OC(=O)c4ccccc4)[C@H]21)C3(C)C (some centres unmarked) [MDC-406]
- 50% growth inhibition (GI50) activity [1]: in the same magnitude range as paclitaxel or docetaxel

Compound: CC(=O)O[C@@]12CO[C@@H]1C[C@H](O)[C@@]1(C)C(=O)[C@H](O)C3=C(C)[C@@H](OC(=O)[C@H](OC(=O)CCC(=O)NCCCCC(NC(=O)CC[C@H](NC(=O)C(C)NC(=O)/C=C/c4cccc(F)c4)C(N)=O)C(N)=O)[C@@H](NC(=O)OC(C)(C)C)c4ccccc4)C[C@@](O)([C@@H](OC(=O)c4ccccc4)[C@H]21)C3(C)C (some centres unmarked) [MDC-407]
- 50% growth inhibition (GI50) activity [1]: in the same magnitude range as paclitaxel or docetaxel

Compound: CC(=O)O[C@@]12CO[C@@H]1C[C@H](O)[C@@]1(C)C(=O)[C@H](O)C3=C(C)[C@@H](OC(=O)[C@H](OC(=O)CCC(=O)NCCCCC(NC(=O)CC[C@H](NC(=O)C(C)NC(=O)/C=C/c4ccc(Cl)cc4)C(N)=O)C(N)=O)[C@@H](NC(=O)OC(C)(C)C)c4ccccc4)C[C@@](O)([C@@H](OC(=O)c4ccccc4)[C@H]21)C3(C)C (some centres unmarked) [MDC-400]
- 50% growth inhibition (GI50) activity [3]: in the same magnitude range as paclitaxel

Compound: CC(=O)O[C@@]12CO[C@@H]1C[C@H](O)[C@@]1(C)C(=O)[C@H](O)C3=C(C)[C@@H](OC(=O)[C@H](OC(=O)CCC(=O)NCCCCC(NC(=O)CC[C@H](NC(=O)C(C)NC(=O)/C=C/c4ccc(F)c(F)c4)C(N)=O)C(N)=O)[C@@H](NC(=O)OC(C)(C)C)c4ccccc4)C[C@@](O)([C@@H](OC(=O)c4ccccc4)[C@H]21)C3(C)C (some centres unmarked) [MDC-408]
- 50% growth inhibition (GI50) activity [1]: in the same magnitude range as paclitaxel or docetaxel

Compound: CC(=O)O[C@H]1C(=O)[C@@]2(C)[C@H]([C@H](OC(=O)c3ccccc3)[C@]3(O)C[C@H](OC(=O)[C@H](OC(=O)CCC(=O)NCCCCC(NC(=O)CC[C@H](NC(=O)C(C)NC(=O)/C=C/c4ccc(F)cc4)C(N)=O)C(N)=O)[C@@H](NC(=O)c4ccccc4)c4ccccc4)C(C)=C1C3(C)C)[C@]1(OC(C)=O)CO[C@@H]1C[C@@H]2O (some centres unmarked) [MTC-306]
- 50% growth inhibition (GI50) activity [1]: in the same magnitude range as paclitaxel or docetaxel
